Source: US20220024921A1, “1,3,4-OXADIAZOLONE COMPOUND AND PHARMACEUTICAL” (NIPPON SHINYAKU CO., LTD., priority 2018, published 2022)
Where a name gives a salt, the structure may show the parent alone.

Key:
[1] = target: T1, PIM1 serine/threonine kinase (Homo sapiens, UniProt P11309); experiment: PIM1 serine/threonine kinase inhibitory effect; type: biochemical; settings: PIM1 serine/threonine kinase activity; ATP 40 μM; 30° C., 30 minutes
T1 construct: purchased Carna Bioscience, Inc
Method in brief: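 Recombinant PIM1 (0.15 μg/ml final) with 0.5 μM biotinylated substrate and 40 μM ATP in pH 7.0 HEPES/MgCl2 buffer, 30 min at 30° C. Compound range was 0.01–10000 nM final, n=2. HTRF detection with streptavidin-XL665 and anti-phospho antibody-cryptate, 1 h; IC50 from non-linear regression of the 665/620 ratio.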

[2] = target: PIM1 transgenic cells (Ba/F3) (Homo sapiens, UniProt P11309); experiment: Proliferation inhibitory effect on PIM1 transgenic cells; type: cell-based, mouse; settings: proliferation inhibition, 72 hours, Cell Counting Kit-8, read-out: PIM1 IC50
Chain of PIM1 transgenic cells (Ba/F3) (P11309 whole entry, stated change not applied): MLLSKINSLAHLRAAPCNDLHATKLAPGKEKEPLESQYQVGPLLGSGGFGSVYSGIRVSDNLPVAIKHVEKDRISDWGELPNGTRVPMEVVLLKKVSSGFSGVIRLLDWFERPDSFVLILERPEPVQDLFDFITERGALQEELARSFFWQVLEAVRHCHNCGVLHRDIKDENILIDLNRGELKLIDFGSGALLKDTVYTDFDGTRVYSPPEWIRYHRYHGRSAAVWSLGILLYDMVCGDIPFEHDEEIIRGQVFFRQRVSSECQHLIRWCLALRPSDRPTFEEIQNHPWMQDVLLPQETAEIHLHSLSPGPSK
Method in brief: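 Mouse Ba/F3 pro-B cells were retrovirally transduced with human PIM1 so that their proliferation depends on PIM1. Cells were treated with compound at 1–10000 nM final for 72 h, then read by CCK-8 (OD450−OD650). Inhibition was set against DMSO (0%) and no-cell blank (100%), and IC50 was obtained by two-parameter logistic regression.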

T1 sequence (P11309 whole entry): as the sequence (P11309 whole entry, stated change not applied) above

IC50 [1]	GI50 [2]	SMILES
2.2 nM	100 nM	CC(N)[C@H]1CC[C@H](Nc2cc(-c3n[nH]c(=O)o3)ccc2C(F)(F)F)CC1 (stereo partly shown) [Example 39, 5-[3-{[(1r,4r)-4-(1-aminoethyl)cyclohexyl]amino}-4-(trifluoromethyl)phenyl]-1,3,4-oxadiazol-2(3H)-one hydrochloride]
4.3 nM	600 nM	CC(CC1CCNCC1)Nc1cc(-c2n[nH]c(=O)o2)ccc1C(F)(F)F (stereo not shown) [Example 81, 5-[3-{[1-(piperidin-4-yl)propan-2-yl]amino}-4-(trifluoromethyl)phenyl]-1,3,4-oxadiazol-2(3H)-one hydrochloride]
8.5 nM	130 nM	CN[C@H]1C[C@@H]([C@H](C)Nc2cc(-c3n[nH]c(=O)o3)cc(F)c2OC(F)(F)F)C1 [Example 208, 5-[3-fluoro-5-({(1S)-1-[(1s,3R)-3-(methylamino)cyclobutyl]ethyl}amino)-4-(trifluoromethoxy)phenyl]-1,3,4-oxadiazol-2(3H)-one]
15 nM	1900 nM	NCCCCNc1cc(-c2n[nH]c(=O)o2)ccc1C(F)(F)F [Example 1, 5-{3-[(4-aminobutyl)amino]-4-(trifluoromethyl)phenyl}-1,3,4-oxadiazol-2(3H)-one hydrochloride]
6.2 nM	730 nM	N[C@H]1CC[C@@H](Nc2cc(-c3n[nH]c(=O)o3)ccc2Cl)CC1 [Example 33, 5-(3-{[(1s,4s)-4-aminocyclohexyl]amino}-4-chlorophenyl)-1,3,4-oxadiazol-2(3H)-one hydrochloride]
3.4 nM	37 nM	CCc1c(F)cc(-c2n[nH]c(=O)o2)cc1N[C@@H](C)[C@H]1CC[C@H](N)CC1 [Example 231, 5-[3-({(1S)-1-[(1r,4S)-4-aminocyclohexyl]ethyl}amino)-4-ethyl-5-fluorophenyl]-1,3,4-oxadiazol-2(3H)-one hydrochloride]
31 nM	1300 nM	N[C@H]1CC[C@H](CCNc2cc(-c3n[nH]c(=O)o3)ccc2C(F)(F)F)CC1 [Example 117, 5-[3-({2-[(1r,4r)-4-aminocyclohexyl]ethyl}amino)-4-(trifluoromethyl)phenyl]-1,3,4-oxadiazol-2(3H)-one hydrochloride]
3.6 nM	54 nM	CN[C@H]1C[C@@H]([C@H](C)Nc2cc(-c3n[nH]c(=O)o3)cc(F)c2C(F)(F)F)C1 [Example 203, 5-[3-fluoro-5-({(1S)-1-[(1s,3R)-3-(methylamino)cyclobutyl]ethyl}amino)-4-(trifluoromethyl)phenyl]-1,3,4-oxadiazol-2(3H)-one hydrochloride]
6 nM	370 nM	CC1(CNc2cc(-c3n[nH]c(=O)o3)ccc2C(F)(F)F)CCNCC1 [Example 57, 5-[3-{[(4-methylpiperidin-4-yl)methyl]amino}-4-(trifluoromethyl)phenyl]-1,3,4-oxadiazol-2(3H)-one hydrochloride]
3.1 nM	570 nM	N[C@H]1CC[C@H](Nc2cc(-c3n[nH]c(=O)o3)cc(F)c2C(F)(F)F)CC1 [Example 36, 5-[3-{[(1r,4r)-4-aminocyclohexyl]amino}-5-fluoro-4-(trifluoromethyl)phenyl]-1,3,4-oxadiazol-2(3H)-one hydrochloride]
0.6 nM	61 nM	N[C@H]1CC[C@H](CNc2cc(-c3n[nH]c(=O)o3)cc(F)c2Cl)CC1 [Example 86, 5-[3-({[(1r,4r)-4-aminocyclohexyl]methyl}amino)-4-chloro-5-fluorophenyl]-1,3,4-oxadiazol-2(3H)-one hydrochloride]
11 nM	7900 nM	NCCCCCNc1cc(-c2n[nH]c(=O)o2)ccc1C(F)(F)F [Example 3, 5-{3-[(5-aminopentyl)amino]-4-(trifluoromethyl)phenyl}-1,3,4-oxadiazol-2(3H)-one hydrochloride]
3.5 nM	2100 nM	C[C@H](Nc1cc(-c2n[nH]c(=O)o2)cc(C#N)c1Cl)C1CCNCC1 [Example 110, 2-chloro-5-(5-oxo-4,5-dihydro-1,3,4-oxadiazol-2-yl)-3-{[(1S)-1-(piperidin-4-yl)ethyl]amino}benzonitrile hydrochloride]
10 nM	250 nM	CC(Oc1cc(-c2n[nH]c(=O)o2)ccc1C(F)(F)F)C1CCNCC1 (stereo not shown) [Example 239, 5-{3-[1-(piperidin-4-yl)ethoxy]-4-(trifluoromethyl)phenyl}-1,3,4-oxadiazol-2(3H)-one]
6.2 nM	440 nM	N[C@H]1CC[C@H](Nc2cc(-c3n[nH]c(=O)o3)cc(F)c2Cl)CC1 [Example 40, 5-(3-{[(1r,4r)-4-aminocyclohexyl]amino}-4-chloro-5-fluorophenyl)-1,3,4-oxadiazol-2(3H)-one hydrochloride]
8.7 nM	140 nM	C[C@H](Nc1cc(-c2n[nH]c(=O)o2)ccc1C(F)(F)F)C1CCCNCCC1 [Example 162, 5-[3-{[(1S)-1-(azocan-5-yl)ethyl]amino}-4-(trifluoromethyl)phenyl]-1,3,4-oxadiazol-2(3H)-one hydrochloride]
5 nM	120 nM	CC(C)Oc1c(Cl)cc(-c2n[nH]c(=O)o2)cc1N[C@@H](C)C1CCNCC1 [Example 103, 5-(3-chloro-5-{[(1S)-1-(piperidin-4-yl)ethyl]amino}-4-[(propan-2-yl)oxy]phenyl)-1,3,4-oxadiazol-2(3H)-one hydrochloride]
3.5 nM	57 nM	CN[C@H]1CC[C@H]([C@H](C)Nc2cc(-c3n[nH]c(=O)o3)cc(F)c2OC(F)(F)F)CC1 [Example 204, 5-[3-fluoro-5-({(1S)-1-[(1r,4S)-4-(methylamino)cyclohexyl]ethyl}amino)-4-(trifluoromethoxy)phenyl]-1,3,4-oxadiazol-2(3H)-one hydrochloride]
13 nM	5100 nM	NCCC1CCN(c2cc(-c3n[nH]c(=O)o3)cc3[nH]ncc23)CC1 [Example 12, 5-{4-[4-(2-aminoethyl)piperidin-1-yl]-1H-indazol-6-yl}-1,3,4-oxadiazol-2(3H)-one dihydrochloride]
3.3 nM	170 nM	C[C@H](Nc1cc(-c2n[nH]c(=O)o2)ccc1Br)C1CCNCC1 [Example 78, 5-(4-bromo-3-{[(1S)-1-(piperidin-4-yl)ethyl]amino}phenyl)-1,3,4-oxadiazol-2(3H)-one dihydrochloride]
8.7 nM	560 nM	C[C@H](Nc1cc(-c2n[nH]c(=O)o2)ccc1C(F)(F)F)[C@H]1CC[C@H](NCCO)CC1 [Example 201, 5-[3-{[(1S)-1-{(1r,4S)-4-[(2-hydroxyethyl)amino]cyclohexyl}ethyl]amino}-4-(trifluoromethyl)phenyl]-1,3,4-oxadiazol-2(3H)-one hydrochloride]
25 nM	6500 nM	C[C@H](Nc1cc(-c2n[nH]c(=O)o2)cc(S(F)(F)(F)(F)F)c1)C1CCNCC1 [Example 107, 5-[3-(pentafluoro-λ^6-sulfanyl)-5-{[(1S)-1-(piperidin-4-yl)ethyl]amino}phenyl]-1,3,4-oxadiazol-2(3H)-one hydrochloride]
1.9 nM	4900 nM	CO/N=C1\CCN([C@@H](C)[C@H]2CCNC[C@H]2C)c2cc(-c3n[nH]c(=O)o3)cc(F)c21 [Example 246, 5-[(4E)-5-fluoro-4-(methoxyimino)-1-{(1S)-1-[(3S,4S)-3-methylpiperidin-4-yl]ethyl}-1,2,3,4-tetrahydroquinolin-7-yl]-1,3,4-oxadiazol-2(3H)-one hydrochloride]
10 nM	250 nM	C[C@@H](C1CCNCC1)N1CCOc2c(F)cc(-c3n[nH]c(=O)o3)cc21 [Example 248, 5-{8-fluoro-4-[(1S)-1-(piperidin-4-yl)ethyl]-3,4-dihydro-2H-1,4-benzoxazin-6-yl}-1,3,4-oxadiazol-2(3H)-one]
1.2 nM	40 nM	O=c1[nH]nc(-c2cc(F)c(C(F)(F)F)c(N[C@@H](CF)C3CCNCC3)c2)o1 [Example 160, 5-[3-fluoro-5-{[(1R)-2-fluoro-1-(piperidin-4-yl)ethyl]amino}-4-(trifluoromethyl)phenyl]-1,3,4-oxadiazol-2(3H)-one hydrochloride]
2.4 nM	110 nM	C[C@H](Nc1c(F)c(-c2n[nH]c(=O)o2)cc(F)c1Cl)C1CCNCC1 [Example 88, 5-(4-chloro-2,5-difluoro-3-{[(1S)-1-(piperidin-4-yl)ethyl]amino}phenyl)-1,3,4-oxadiazol-2(3H)-one hydrochloride]
9.1 nM	380 nM	C[C@H](Nc1cc(-c2n[nH]c(=O)o2)ccc1C(F)(F)F)C1CC2(CNC2)C1 [Example 149, 5-[3-{[(1S)-1-(2-azaspiro[3.3]heptan-6-yl)ethyl]amino}-4-(trifluoromethyl)phenyl]-1,3,4-oxadiazol-2(3H)-one trifluoroacetate]
2.8 nM	30 nM	C[C@H](Nc1cc(-c2n[nH]c(=O)o2)cc(F)c1C(F)(F)F)C1(F)CCNCC1 [Example 159, 5-[3-fluoro-5-{[(1S)-1-(4-fluoropiperidin-4-yl)ethyl]amino}-4-(trifluoromethyl)phenyl]-1,3,4-oxadiazol-2(3H)-one hydrochloride]
9.6 nM	88 nM	CC1(C)[C@@H](CNc2cc(-c3n[nH]c(=O)o3)ccc2C(F)(F)F)C[C@H]1N [Example 176, 5-[3-({[(1S,3R)-3-amino-2,2-dimethylcyclobutyl]methyl}amino)-4-(trifluoromethyl)phenyl]-1,3,4-oxadiazol-2(3H)-one]
